Among the test systems are M19-MEL; DMS-273; KM-20L2; DMS-114; SNB-78; HOP-18; XF498; DLD-1; RXF 631.
Common to all, as to experiment: growth of human tumour cells (NCI), 48 h

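Assay format: 96-well plates, 48-hour exposure. GI50 = concentration required for 50% inhibition of growth.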 Active and inactive are the calls of the source. No stated cut-off is given here; in the data, active = GI50 up to about 1.1 µM and inactive = higher.

In the case of `O=C(Nc1nccs1)c1cc(C2=CC=CC([N+](=O)[O-])C=C2)nc(S)n1` (configuration not stated), the GI50 with M19-MEL, with DMS-273, in the assay with KM-20L2, in the assay on DMS-114, with SNB-78 and with HOP-18 was > 100 µM (inactive) each time.

Turning to `O=C(CC(=O)C1CCOC1=O)C(=O)Nc1ccc(Cl)cc1Cl` (configuration not stated), the GI50 in the assay with M19-MEL, with DMS-273, with XF498, with KM-20L2, in the assay with DMS-114 and in the assay on DLD-1 was > 100 µM (inactive) each time. Also, the GI50 in the assay on SNB-78 was > 100 µM (inactive).

`CCOc1ccccc1NC(=O)CCC(=O)OC`: the GI50 in the assay with M19-MEL is > 100 µM (inactive); with DMS-273, > 100 µM (inactive); in the assay on XF498 it was > 100 µM (inactive); in the assay on KM-20L2, > 100 µM (inactive); in the assay with DMS-114 it was > 61.1 µM (inactive); in the assay with DLD-1, > 83 µM (inactive). In addition, the GI50 with SNB-78 and in the assay on HOP-18 was > 100 µM (inactive) each time.

`C/C=C/C1(C)/C(=N\O)C(C)(CCC)C(=O)N1O` (configuration not stated): the GI50 in the assay with M19-MEL, with DMS-273, in the assay on XF498, in the assay on KM-20L2, with DMS-114 and with DLD-1 was > 100 µM (inactive) in each case. In addition, the GI50 in the assay with SNB-78 was > 100 µM (inactive).

As for `CCN(CC)c1ccc(C(=O)c2ccccc2C(=O)O)c(O)c1`, the GI50 with M19-MEL, in the assay on DMS-273, in the assay with XF498, in the assay on DMS-114 and in the assay on SNB-78 was > 100 µM (inactive) throughout.

In the case of `CC1C[C@H](OC(N)=O)C(C)CC1=O` (some centres not stated), the GI50 in the assay with M19-MEL, with DMS-273, in the assay with XF498, in the assay on KM-20L2, in the assay on DMS-114 and with DLD-1 was > 100 µM (inactive) each time. Also, the GI50 with SNB-78 and with HOP-18 was > 100 µM (inactive) each time.

For the compound `C/C(CCc1ccccc1)=N\NC(N)=S`, the GI50 with RXF 631 was > 100 µM (inactive); in the assay on M19-MEL, 74.8 µM (inactive); with DMS-273 it was > 100 µM (inactive); with XF498 it was 43.4 µM (inactive); with KM-20L2, > 100 µM (inactive); in the assay on DMS-114 it was 39 µM (inactive). In addition, the GI50 in the assay with DLD-1, in the assay with SNB-78 and with HOP-18 was > 100 µM (inactive) each time.

With `Oc1cc(-c2ccccc2)nc2cc3c(cc12)OCO3`, the GI50 in the assay with RXF 631 was 2.9 µM (inactive); with M19-MEL it was 3.21 µM (inactive); in the assay on DMS-273 it was 11.7 µM (inactive); in the assay on XF498, 26.9 µM (inactive); in the assay with KM-20L2, 7.35 µM (inactive); in the assay on DLD-1, 6.56 µM (inactive). In addition, the GI50 is 3.72 µM (inactive) with SNB-78 and > 100 µM (inactive) in the assay with HOP-18.

For `CN1CCS(=O)(=O)NC(Cc2ccccc2)C(=O)N2CCCC2C1=O` (configuration not stated), the GI50 with M19-MEL, with DMS-273, in the assay with XF498, in the assay on KM-20L2, in the assay on DMS-114 and with DLD-1 was > 100 µM (inactive) in each case. Also, the GI50 in the assay on SNB-78 and with HOP-18 was > 100 µM (inactive) each time.

`O=C(Nc1ccc(Cl)c(Cl)c1)C(=O)C(C(=O)c1ccccc1-c1ccccc1)C1OC(=O)c2ccccc21` (configuration not stated): the GI50 in the assay with RXF 631 was 14.3 µM (inactive); in the assay on M19-MEL, 13.1 µM (inactive); with XF498, 12.8 µM (inactive); with KM-20L2 it was 22.9 µM (inactive); in the assay with DMS-114 it was 12.1 µM (inactive); in the assay on DLD-1, 14.8 µM (inactive). In the assay with SNB-78, the GI50 was 10.4 µM (inactive).

Consider `CCCCCCCCCCCCCS(=O)(=O)O`, for which the GI50 in the assay with RXF 631, in the assay with M19-MEL, with XF498, in the assay on KM-20L2, in the assay on DMS-114 and with DLD-1 was > 100 µM (inactive) throughout. Further, the GI50 is > 100 µM (inactive) with SNB-78 and 3.08 µM (inactive) in the assay with HOP-18.

`COc1cc(CCc2ccc(OC(C)=O)cc2)cc(OC)c1OC`: the GI50 in the assay on M19-MEL is > 100 µM (inactive); with DMS-273 it was > 100 µM (inactive); in the assay with KM-20L2 it was > 100 µM (inactive); in the assay on DMS-114, 55 µM (inactive); in the assay with DLD-1, > 100 µM (inactive); in the assay with SNB-78 it was > 100 µM (inactive). Moreover, the GI50 with HOP-18 is > 100 µM (inactive).

With `COC(=O)C(CCC1(C)OCCO1)C(C)=O` (configuration not stated), the GI50 with RXF 631, with M19-MEL, with DMS-273, in the assay with XF498, in the assay with KM-20L2 and with DMS-114 was > 100 µM (inactive) in each case. For the same compound, the GI50 with DLD-1, with SNB-78 and with HOP-18 was > 100 µM (inactive) in each case.

On to `Cc1ccc(NC(=O)C2C(=O)C(=O)N(c3ccc(C)cc3)C2=O)cc1` (configuration not stated), for which the GI50 in the assay on M19-MEL, in the assay with KM-20L2, in the assay with DMS-114, in the assay on DLD-1, in the assay on SNB-78 and in the assay on HOP-18 was > 100 µM (inactive) in each case.

`CCCCOC(=O)CNC(=O)OCCCCC#CC#CCCCCOC(=O)NCC(=O)OCCCC`: the GI50 in the assay with M19-MEL, in the assay on DMS-273, with XF498, with KM-20L2, in the assay with DMS-114 and in the assay on DLD-1 was > 100 µM (inactive) each time. The GI50 with SNB-78 was > 100 µM (inactive); in the assay on HOP-18, 69.8 µM (inactive).

Take `COc1ccccc1/C=C1\CCC(CCN2CCOCC2)C1=O` (configuration not stated): the GI50 with RXF 631 was 92.7 µM (inactive); in the assay with M19-MEL, > 100 µM (inactive); in the assay on DMS-273, > 100 µM (inactive); with XF498 it was > 100 µM (inactive); in the assay with KM-20L2 it was 75 µM (inactive); in the assay with DMS-114 it was 42 µM (inactive). The GI50 in the assay with DLD-1, in the assay on SNB-78 and with HOP-18 was > 100 µM (inactive) each time.

`Cc1ccccc1CN1CC=c2ccccc2=N1`: the GI50 with RXF 631 is > 100 µM (inactive); in the assay on M19-MEL it was > 100 µM (inactive); with DMS-273, > 100 µM (inactive); with XF498, 68.1 µM (inactive); with KM-20L2 it was > 100 µM (inactive); in the assay with DMS-114 it was > 100 µM (inactive). In addition, the GI50 in the assay with DLD-1, in the assay with SNB-78 and in the assay with HOP-18 was > 100 µM (inactive) each time.

As for `C/C(CC(=O)Nc1cccc(Cl)c1C)=N\NC(N)=S`, the GI50 in the assay on RXF 631, in the assay with M19-MEL, in the assay with XF498, in the assay on KM-20L2, with DLD-1 and in the assay with SNB-78 was > 100 µM (inactive) in each case.

In the case of `CCCNCCCC(NC(C)=O)C(=O)NCc1ccccc1` (configuration not stated), the GI50 with RXF 631, in the assay with M19-MEL, with DMS-273, in the assay with XF498, in the assay on KM-20L2 and with DMS-114 was > 100 µM (inactive) throughout. Further, the GI50 in the assay with DLD-1 and in the assay with SNB-78 was > 100 µM (inactive) throughout.

For `Nc1nc(Cl)cc(NCCCCCCNc2cc(Cl)nc(N)n2)n1`, the GI50 with RXF 631 is > 100 µM (inactive); with M19-MEL, > 100 µM (inactive); in the assay on DMS-273 it was > 100 µM (inactive); in the assay on XF498 it was 30.6 µM (inactive); in the assay with KM-20L2 it was > 100 µM (inactive); with DLD-1, > 100 µM (inactive). For the same compound, the GI50 in the assay with HOP-18 was > 100 µM (inactive).

Turning to `S=C(Nc1ccccc1)N1N=C2c3ccccc3CC[C@H]2[C@@H]1c1ccccc1`, the GI50 is 1.83 µM (inactive) in the assay with M19-MEL; > 100 µM (inactive) in the assay on XF498; 3.21 µM (inactive) in the assay on KM-20L2; 2.29 µM (inactive) in the assay on DMS-114; 9.42 µM (inactive) in the assay on DLD-1; 0.708 µM (active) in the assay on SNB-78. Besides, the GI50 with HOP-18 was 6.21 µM (inactive).

On to `Cn1cc(NC(=O)c2cc(NC(=O)CCCCCCCCCC(=O)Nc3cc(C(=O)Nc4cc(C(=O)NCCC(=N)N)n(C)c4)n(C)c3)cn2C)cc1C(=O)NCCC(=N)N`, for which the GI50 in the assay on M19-MEL is 34.1 µM (inactive); with DMS-273, 33.2 µM (inactive); with XF498 it was 32.9 µM (inactive); in the assay on KM-20L2 it was 31.2 µM (inactive); in the assay on DMS-114 it was 84.9 µM (inactive); in the assay with DLD-1, 34.2 µM (inactive). The results for the GI50 with SNB-78 and with HOP-18 were 37.2 µM (inactive) and 35.3 µM (inactive), respectively.

As to `O=C1[C@@H]2C(c3ccc(Cl)cc3Cl)=NO[C@@H]2C(=O)N1c1ccc(Cc2ccc(N3C(=O)[C@H]4C(c5ccc(Cl)cc5Cl)=NO[C@H]4C3=O)cc2)cc1`, the GI50 in the assay on M19-MEL was > 100 µM (inactive); in the assay on DMS-273 it was > 100 µM (inactive); with XF498 it was > 100 µM (inactive); in the assay on KM-20L2, > 100 µM (inactive); in the assay on DMS-114, 39.5 µM (inactive); with DLD-1 it was > 100 µM (inactive). Also, the GI50 with SNB-78 was 46.8 µM (inactive); with HOP-18 it was > 100 µM (inactive).

With `Cc1cc2c(c3c1c1ccccc1n3C)C(=O)c1ccccc1C2=O`, the GI50 is > 100 µM (inactive) with RXF 631; > 100 µM (inactive) in the assay on M19-MEL; > 100 µM (inactive) in the assay on DMS-273; 60.1 µM (inactive) in the assay on XF498; > 100 µM (inactive) in the assay on KM-20L2; > 100 µM (inactive) in the assay with DMS-114. Besides, the GI50 in the assay on DLD-1 and in the assay with SNB-78 was > 100 µM (inactive) each time.

In the case of `N#C/C(=C\c1ccccc1)C(NO)Nc1ccccc1` (configuration not stated), the GI50 was > 100 µM (inactive) in the assay on M19-MEL; > 100 µM (inactive) in the assay with DMS-273; > 100 µM (inactive) in the assay with KM-20L2; > 100 µM (inactive) in the assay with DLD-1; 83.2 µM (inactive) in the assay on SNB-78; > 100 µM (inactive) with HOP-18.

These data come from ChEMBL document CHEMBL1201862, “PubChem BioAssay data set” (2004).
